Measurements as given in patent publication US20090111781A1, “Use of Cymipristone Type Compounds in Aids Treatment” (SHANGHAI THREE-ALLIANCE BIOTECHNOLOGIES CO., LTD., priority 2005, published 2009).

Assays:
[1] = target: T1, progestogen receptor (PRa) (Homo sapiens, UniProt P06401); assay: Binding activity on human nuclear receptor PR; details: mean ± SD, n = 4
T1 sequence (P06401 1-769 isoform P06401-2): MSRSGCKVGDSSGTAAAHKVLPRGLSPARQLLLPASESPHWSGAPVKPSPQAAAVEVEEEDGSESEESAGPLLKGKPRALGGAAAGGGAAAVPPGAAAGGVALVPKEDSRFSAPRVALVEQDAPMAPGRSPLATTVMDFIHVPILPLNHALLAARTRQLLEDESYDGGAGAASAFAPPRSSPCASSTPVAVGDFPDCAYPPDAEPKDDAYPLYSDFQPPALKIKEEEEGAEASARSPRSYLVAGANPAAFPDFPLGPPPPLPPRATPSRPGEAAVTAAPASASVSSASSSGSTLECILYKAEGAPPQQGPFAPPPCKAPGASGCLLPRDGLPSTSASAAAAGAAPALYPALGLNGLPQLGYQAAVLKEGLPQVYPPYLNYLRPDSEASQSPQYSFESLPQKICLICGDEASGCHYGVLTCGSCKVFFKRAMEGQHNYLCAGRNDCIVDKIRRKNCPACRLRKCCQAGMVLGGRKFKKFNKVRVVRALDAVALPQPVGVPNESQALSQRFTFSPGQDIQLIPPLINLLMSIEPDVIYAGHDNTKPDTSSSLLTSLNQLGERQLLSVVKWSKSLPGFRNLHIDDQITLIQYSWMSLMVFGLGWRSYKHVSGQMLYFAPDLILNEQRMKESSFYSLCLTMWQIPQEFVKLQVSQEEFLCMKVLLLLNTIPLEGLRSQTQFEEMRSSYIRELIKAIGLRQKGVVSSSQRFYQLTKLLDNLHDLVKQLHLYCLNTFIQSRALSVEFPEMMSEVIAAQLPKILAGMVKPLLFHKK
Procedure: (§1) Buffer solution is composed of 25 mM NaPO4, 20 mM NaMoO4, 10 mM KF and 10% glycerol (pH=7.3) and stored under 4° C. Stock solution is prepared with CHAPS and DTT and stored under −20° C. […] Add 2.5 μl/hole into 96-pore plate. Take out appropriate amount of buffer solution reserve into solution to make the final concentration of CHAPS and DDT to become 0.25 mM and 2 mM respectively. Add protease inhibitors (aprotinin and leupeptin) to make its final concentration to become 1 μg/μl, and place in an ice bath. After adding human nuclear receptor GR (1:8), PR (1:100), ER (1:2000), AR (1:200) and MR (1:40) into the reaction system respectively, adequately mix suitable quantity of [^3H]-dexamethasone, [^3H]-progesterone, [^3H]-estradiol and [^3H]-DHT (from Amersham), rapidly add into 96-pore plate (100 μl/pore) and incubate overnight under 4° C. On the next day, add 25 μl of hydroxyapatite suspension into each pore and mix with shaking. After incubating for 10 min, separate by centrifuge for 3 min at 2500 rpm. The precipitate is washed with 100 μl of buffer solution and separated by centrifuge twice. Add 150 μl of scintillation solution (from Perkin Elmer) into each pore, mix with shaking and count by MicroBeta counter.

[2] = target: T2, estrogen receptor ERα (Homo sapiens, UniProt P03372); assay: Binding activity on human nuclear receptor ERα; details: mean ± SD, n = 4
T2 sequence (P03372 1-595): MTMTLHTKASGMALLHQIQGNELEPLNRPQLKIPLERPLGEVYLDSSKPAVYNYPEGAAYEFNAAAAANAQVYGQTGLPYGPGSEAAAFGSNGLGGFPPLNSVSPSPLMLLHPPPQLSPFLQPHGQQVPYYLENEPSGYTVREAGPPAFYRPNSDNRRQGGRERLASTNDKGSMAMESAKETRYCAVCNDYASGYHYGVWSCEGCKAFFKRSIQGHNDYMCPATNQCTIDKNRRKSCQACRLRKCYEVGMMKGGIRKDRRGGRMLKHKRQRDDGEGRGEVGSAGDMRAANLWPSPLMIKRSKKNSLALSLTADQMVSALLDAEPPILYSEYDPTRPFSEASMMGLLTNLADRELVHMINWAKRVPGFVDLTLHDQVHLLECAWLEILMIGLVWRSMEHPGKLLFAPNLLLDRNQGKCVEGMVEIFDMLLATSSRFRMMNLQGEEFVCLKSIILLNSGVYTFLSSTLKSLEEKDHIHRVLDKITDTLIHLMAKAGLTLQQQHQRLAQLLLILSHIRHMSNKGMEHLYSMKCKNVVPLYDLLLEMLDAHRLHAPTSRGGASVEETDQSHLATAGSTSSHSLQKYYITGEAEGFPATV
Procedure: as §1

[3] = test system: thymus gland cells; assay: Anti-glucocorticoid activity test, [3H]-TdR incorporation in rat thymus gland cells; format: cell-based; details: for Antagonism against dexamethasone (incorporation rate of [3H]-TdR): n = 4
Procedure: Clean female SD rats, body weight 200-250 g, are fed with certain quantity of food and freely drink water. The temperature is controlled at about 24° C. and an illumination cycle are for 11 hours by day and 13 hours at night. All animals are observed for 1 week before experiment. Rats are anesthetized with ethyl ether. Incisions are made on two sides below costal arch of ribs on dorsal position of rats to extirpate adrenal glands. The rats are fed with physiological saline after operation. On the seventh day, animals are acutely executed. Take out thymus gland to place in to HBSS buffer solution, wash twice, remove connective tissue, cut the tissue with scissors, lightly grind with homogenizer, filter with three layers of gauze, and centrifuge the filtrate for 5 min (500 rpm). Wash the precipitated cells twice with HBSS, re-suspend the cells in RPMI1640 culture medium for cell count and cell survival rate determination, and adjust cell concentration to 1×10^7/ml. Determination of anti-glucocorticoid activity: Add tested compound into culture medium, reaction concentration 6×10^−[…], and place in 37° C. incubator for 3 hours. Add thymus gland cells to make cell concentration to become 10^7/ml and incubate at 37° C. for 3 hours. Add 1 μCi of label substance, mix, and incubate for 1 hour. Add 100 μl of ice cold 5% trichloroacetic acid to end the reaction. Place the test tube on ice and wash twice with 2 ml of ice cold 5% trichloroacetic acid and centrifuge twice, 500 rpm×5 min, Add 0.5 ml of 1N NaOH to dissolve the precipitated cells, pipet out the liquid, dry the residue with cotton stick, place into same scintillation bottle, and determine the radioactivity by liquid scintillation counter.
Calculate the incorporation rate of [^3H]-TdR:
In which: T=[^3H]-TdR count without presence of compound, Td=count with presence of compound, and NSB=non-specific adsorption.
Inhibition rate=100%−incorporation rate

[4] = Rattus norvegicus, read-out: Residual inhibition rate of dexamethasone

`CC#C[C@]1(O)CC[C@H]2[C@@H]3CCC4=CC(=O)CCC4=C3[C@@H](c3ccc(N(C)C4CCCCC4)cc3)C[C@@]21C` [Cymipristone, 11β-[4-(N-methyl-N-cyclohexylamino)phenyl]-17α-(1-propynyl)-17β-hydroxyl-4,9-estradiene-3-one] was tested, and the IC50 [1] was 5.2 ± 0.26 nM, the IC50 [2] was 516 ± 62.8 nM and the “Anti-glucocorticoid activity (in words)” value [3] was “Result shows that cymipristone has anti-glucocorticoid activity”. It also gave an activity at 0.06 µM [3, 4] of 35.2 ± 2.4%, an activity at 0.2 µM [3, 4] of 57.7 ± 3.5% and an activity at 0.6 µM [3, 4] of 42.2 ± 1.9%. The activity at 2 µM [3, 4] was 64.1 ± 5.6%, the “Antagonism against dexamethasone (incorporation rate of [3H]-TdR)” value (“Antagonism against dexamethasone” for short) ([3]; cymipristone 2 × 10^−6 mol/L with dexamethasone 6×10^−8 mol/L) was 63.6 ± 5.1% and the “Antagonism against dexamethasone” value ([3]; cymipristone 2 × 10^−7 mol/L with dexamethasone 6×10^−8 mol/L) was 67.2 ± 2.9%. For the same molecule, the “Antagonism against dexamethasone” value ([3]; cymipristone 6 × 10^−7 mol/L with dexamethasone 6×10^−8 mol/L) was 76.0 ± 3.8% and the “Antagonism against dexamethasone” value ([3]; cymipristone 6 × 10^−8 mol/L with dexamethasone 6×10^−8 mol/L) was 80.0 ± 4.3%.
